Entries after “also recorded” stand apart in the source; their conditions may differ.

Data on two compounds can be found in patent US20100028465A1, “COMPOSITION FOR AMELIORATING CEREBRAL FUNCTION” (priority 2007, published 2010).

One experiment deals with PC-12 cell. As to the kind of experiment: Neurite extension / differentiation of PC-12 cell (differentiated cell ratio). The following applies: Example 6, non-addition 9.85. The experiment is classed as cell-based. From the text:
Regarding three fractions purified in Example 4, i.e. the fraction 1 (containing N-acylsphinganine), the fraction 2 (containing the hopanoids), and the fraction 3 (containing sphinganine and the amino lipids), the absence or presence of an action of extending and differentiating the neurite as a neurotrophic factor-like action was confirmed using PC-12 cell as a neural model cell.
Note that, in the same manner as in Example 4, 10 g of the alkali-stable lipid was loaded into a silica gel column equilibrated with chloroform. The column was washed with a solvent prepared by mixing chloroform and acetic acid at a volume ratio of 100:1, and eluted with a solvent having a ratio of chloroform to methanol of 2:1, whereby a fraction containing all of the constituent lipids of the fraction 1, fraction 2, and fraction 3 was prepared. The fraction was used as an alkali-stable lipid fraction not containing a fatty acid. Then, the presence or the absence of the action of extending and differentiating the neurite was confirmed similarly.
PC-12 cell (RCB0009) purchased from RIKEN BIORESOURCE CENTER was used. […]
After that, the resultant was cultured at 37° C. and under 5% CO2 for 48 hours. […] The total number of cells and the number of the differentiated cells in the viewing area were counted. […] Then, the average of 10 photographs in which the numbers were counted was calculated. […]

The test system of experiment [1] is intracerebral monoamines: norepinephrine (NE), 5-hydroxyindole acetic acid (5-HIAA). As to the kind of experiment: Monoamine content in cerebral cortex and hippocampus of memory disorder model rats (HPLC-ECD). The experiment is classed as in vivo, rat. The following applies: 1 mg/kg/day oral, day 14. Here is the method: Then, the increase and decrease in the concentrations of those intracerebral substances in rats of each group in Example 2 were measured.
That is, the brains of the memory disorder model rats prepared in Example 2 were extirpated and the contents of the monoamines in the cerebral cortex and hippocampus were measured.
On day 14 after administration, 5 rats each in 5 groups of the ibotenic acid-untreated group, non-administration control group, low dose ASL group, high dose ASL group, and positive control group in Example 2 were decapitated with a decapitation machine and the brains were taken out. The brains were put in an ice-cold physiological saline (Otsuka Pharmaceutical Co., Ltd.). Next, the brains were taken out and the cerebral cortex and hippocampus were then taken from the divided brains and the contents of the monoamines and a metabolite thereof were measured. The measurement method is shown in (a) to (c) below.
0.2 N […] solution was added to a brain sample in a container, and thereafter, an internal standard solution was added thereto, followed by homogenizing with a homogenizer. After being ice-cooled for 60 minutes or more, the resultant was centrifuged with a refrigerated centrifuge (about 4° C., 13,800 rpm, 5 minutes), and the supernatant was used as a measurement sample.
Mobile phase: a mixture containing 0.1 mol/Lacetic acid-citric acid buffer (pH 3.5), methanol, 100 mg/ml sodium 1-octane sulfonate solution, and 5 mg/ml EDTA·2·Na solution at a ratio of 830:170:1.85:1

Experiment [2] relates to memory disorder model rats with defect in the cholinergic neuron (ibotenic acid). As to the kind of experiment: Morris water maze test (acquisition and probe trials) in memory disorder model rats. The experiment is classed as in vivo, rat.

For the compound `CCCCCCCCCCCCCCC[C@@H](O)[C@H](CO)NC(=O)C(O)CCCCCCCCCCCCCC` (stereo partly shown) [N-2′-hydroxypalmitoyl-sphinganine], the “Differentiated cell ratio (%) of PC-12 cell 48 hours after addition” value in the experiment on PC-12 cell (addition concentration 5 μg/ml) worked out at 19.49%; in the experiment on PC-12 cell (addition concentration 25 μg/ml) it was 17.44%.
On to `Cl.Nc1c2c(nc3ccccc13)CCCC2` [positive control, 9-amino-1,2,3,4-tetrahydroacridine hydrochloride], for which, in experiment [1], the “5-HIAA content in hippocampus” value is recorded as “increasing tendencies”. In experiment [1] (hydrochloride), the “5-HIAA content in cerebral cortex” value is reported as “increasing tendencies; also recorded: recovered to the level close to those of the ibotenic acid-untreated group”, the “NE content in cerebral cortex” value is given as “increasing tendencies; also recorded: recovered to the level close to those of the ibotenic acid-untreated group” and the “NE content in hippocampus” value is reported as “increasing tendencies; also recorded: recovered to the level close to that of the ibotenic acid-untreated group”. Besides, the “escape latency in acquisition trials vs non-administration control group” value in experiment [2] (1 mg per 1 kg rat weight per day, oral, trials day 10 to 13) was “tended to be short”. In experiment [2] (1 mg/kg/day oral), the “escape latency in the seventh trial vs non-administration control group (Steel's test, p<0.05)” value is reported as “no significant difference”. Moreover, in experiment [2] (1 mg/kg/day oral, day 14), the “retention time in the fourth quadrant in probe trial” value is reported as “did not tend to be long”. Besides, the “number of crossings of platform location in probe trial vs non-administration control group” value in experiment [2] (1 mg/kg/day oral, day 14, p<0.05 Steel's test) is on record as “significant increase”.
